Series [1] concerns phosphorylation of Ser15 of p53 (ATM and ATR). Description: p53 Ser15 phosphorylation in RKO cells treated with synoviolin siRNA, with or without caffeine (Western blotting). It is filed as cell-based, human. The conditions noted are these: caffeine 10 mM, both 12 h and 24 h after the addition, FIG. 5. As for the experimental part: RKO cells (human colon cancer cells), which had been confirmed to express wild-type p53, were seeded on a 60 mm plate at 1.0×10^5 cells/plate/2 mL), and were transfected with siRNA oligonucleotides against GFP and synoviolin, using Oligofectamine. After 72 h, caffeine (10 mM), an inhibitor of ATM (ataxia-telangiectasia mutated) and ATR (an ATM and Rad3-related), which are important in the phosphorylation of […], was added. Then, Western blotting was performed using Phospho-p53 ([…]), an antibody to the phosphorylated […]-p53.

In series [2] the test system is rheumatoid arthritis synovial cells (RASCs). Description: suppression of RASC proliferation (MTT). The note with it: Synovial cell, after 72 h of culture, FIGS. 23 and 24, read-out: IC50, RASC cell survival. It is filed as cell-based. As for the experimental part: The low molecular weight compounds termed No. 32 (Compound X) and No. 38 (Compound Y) were used as specimens. HFLS-RA medium (Cell Applications Inc.; Code CA40405) was used for RASC. RASCs were seeded in a 96-well microtiter plate at 1,000 cells/well, and cultured for 24 h in DMEM containing 10% fetal bovine serum (Kohjin Bio). Then, twofold serial dilutions of the specimens, beginning from a final concentration of 50 μM, were added to the cells. After 1, 24, and 48 h, 3-(4,5-dimethylthiazol-2-yl)-2,5-diphenyltetrazoliumbromide (MTT) was added to a final concentration of 0.5 mg/mL. After 2 h, the medium was aspirated, and the remaining formazan was dissolved with 50 μL of dimethyl sulfoxide. Then, absorbances at […] were measured. The absorbances of the group treated with the specimens were used to calculate cell survival rates, with 0% representing the absorbance of the group without cells or specimen, and 100% representing the absorbance of the group without specimen.

The test system of series [3] is T1, synoviolin (MBP-Syno ΔTM-His), substrate GST-p53 (Homo sapiens).
T1 construct: GST-SynoΔTM 236-617:pGEX-5-1/S ΔTM; His tag (C); made in house; host or cells: E. coli
T1 sequence (Q86TM6 236-617 E545G): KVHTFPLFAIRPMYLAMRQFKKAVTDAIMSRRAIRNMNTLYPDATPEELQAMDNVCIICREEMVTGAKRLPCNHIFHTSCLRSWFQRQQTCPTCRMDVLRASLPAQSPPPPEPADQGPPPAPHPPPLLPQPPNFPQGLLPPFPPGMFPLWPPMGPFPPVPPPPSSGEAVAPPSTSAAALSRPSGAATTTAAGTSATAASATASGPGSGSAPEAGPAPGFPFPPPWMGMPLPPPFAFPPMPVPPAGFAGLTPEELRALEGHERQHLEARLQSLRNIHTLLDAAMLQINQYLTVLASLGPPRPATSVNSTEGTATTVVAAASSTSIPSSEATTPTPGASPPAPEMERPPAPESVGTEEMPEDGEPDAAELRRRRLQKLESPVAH
As to the kind of experiment: in vitro ubiquitination reaction of GST-p53 by MBP-Syno ΔTM-His (Western blot, anti-p53 FL393). The class given is biochemical. The note with it: 75, 150, 300 or 600 μM compound; FIG. 17B. How it is done:
E. coli (BL21) hosting pGEX/p53 was cultured in 500 mL of LB medium. After induction with IPTG (1 mM at 30° C. for 6 h), an extract was prepared from the culture solution, using buffer containing 0.5% NP-40. From the E. coli extract, GST-p53 was purified using a GSH-Sepharose resin in the presence of 0.1% NP-40. […] After the reaction, proteins were separated by 7.5% SDS-PAGE, and transferred onto a PVDF membrane, prior to detection of the p53 protein on the membrane using anti-p53 antibodies (FL393 or DO-1). Reaction and detection were performed with variations in the amount of GST-p53 added.
In the presence of GST-p53, varying concentrations (75 μM, 150 μM, 300 μM, or 600 μM) of compounds X and Y were added to the in vitro ubiquitination reaction system using MBP-Syno ΔTM-His. After reaction, proteins were separated by 7.5% SDS-PAGE, transferred onto a PVDF membrane, and then detected using the anti-p53 antibody FL393 (Santa Cruz Biotechnology).
On the technique in general: Immunoblotting shows a protein as a band on a membrane.

For series [4], the system named is RKO cells. Description: cytotoxicity / cell survival rate in RKO cells (WST-8). The class given is cell-based, human. The note with it: cultured 24-72 h with compound, FIG. 18. As for the experimental part: RKO cells (a human colon carcinoma cell line; ATCC: CRL-2577) were seeded in Eagle's Minimum Essential Medium containing 10% fetal bovine serum in a 96-well microtiter plate (Falcon; non-coated) at 1,000 cells/100 μL/well, and cultured for 24 h. Compounds X and Y were dissolved in Eagle's Minimum Essential Medium containing 10% fetal bovine serum, and 10 μL amounts were added to wells. The cells were then cultured for 24-72 h.
After culture, WST-8 (2-(2-methoxy-4-nitrophenyl)-3-(4-nitrophenyl)-5-(2,4-disulfophenyl)-2H-tetrazolium, monosodium salt) was added to each well. After 2-4 h, absorbances at 450 nm were measured (reference wavelength: […]) and cell survival rates were calculated (FIG. 18).
The calculation method was based on the following formula: […]

In series [5] the test system is p53 protein. Description: p53 protein expression level in RKO cells (Western blotting). The class given is cell-based, human. The conditions noted are these: 5, 10 or 20 μM, 24 h, FIG. 19. As for the experimental part:
Fractions of homogenized cells were prepared from various cells using a cell homogenizing solution (50 mM Tris-HCl [pH 8.0], 150 mM NaCl, 1% NP40, 1 mM PMSF, 0.1% sodium dodecyl sulfate (SDS), 2 μg/mL leupeptin, 2 μg/mL aprotinin, and 2 μg/mL pepstatin). Then, fractions of homogenized cells were separated by SDS-PAGE. After SDS-PAGE, the cell-derived proteins were transferred onto a nitrocellulose (NC) membrane by an electroblotting method. This NC membrane was blocked with Tris buffered saline (TBS) with 5% skim milk at room temperature for 1 h, and then immunoreacted with anti-p53 antibody C-terminal aa; 195-393 or FL393, both of which were diluted in TBS with 5% skim milk, at room temperature for 1 h. The NC membrane after reaction was washed with 0.1% Tween 20/TBS, and then immunoreacted with horse radish peroxidase (HRP)-labeled anti-rabbit IgG antibody as secondary antibody, at room temperature for 1 h. The membrane was washed with 0.1% Tween 20/TBS, and HRP activity was sought to detect the target antigen. An ECL kit (Amersham) was used to detect HRP activity […]).
RKO cells were treated with compound Y, and changes in p53 protein expression level were examined by Western blotting. Specifically, RKO cells were seeded in 10 cm plates at 5.0×10^5 cells/plate, and cultured for 24 h. […]

Series [6] deals with RA synovial cells. Description: cell cycle of RA synovial cells after synoviolin siRNA (flow cytometer). The class given is cell-based. The conditions noted are these: 25 nM siRNA, FIG. 7. As for the experimental part: RA synovial cells were seeded on a 10 cm dish at 9.0×10^4 cells/dish, and were transfected with synoviolin siRNA (final concentration 25 nM). Then, the cell cycle was monitored by flow cytometer.
For orientation: Flow cytometry measures light scatter and fluorescence of single cells or particles in a stream.

For series [7], the system named is synoviolin and p53 mRNA. As to the kind of experiment: mRNA levels of synoviolin and p53 in RASCs under synoviolin RNAi (TaqMan). It is filed as cell-based. The note with it: 25 nM siRNA, cultured 4 d, 18S rRNA as control, FIG. 14. As for the experimental part:
RASCs were seeded on a 10 cm dish at 30,000 cells/dish, and were transfected with 25 nM of siRNA (No. 589) according to a routine method. The cells were then cultured for 4 d. During this period, cells were collected overtime to obtain mRNA. Random primers were used, with 1 μg of mRNA as a template, to perform reverse transcription reactions, and cDNAs were obtained. The obtained cDNAs were quantified using the ABI TaqMan Gene expression assay (GEX). The mRNA levels were calculated using 18S rRNA as control.
The GEX reagent target assay no. (Assay ID) is Hs00381211_m1 for synoviolin and Hs00153340_m1 for p53.
(In general: Real-time PCR tracks product formation cycle by cycle.)

Data on 4 compounds can be found in patent US20080305102A1, “Therapeutic Agent for Cancer Comprising Substance Capable of Inhibiting Expression or Function of Synoviolin as Active Ingredient and Screening Method for the Therapeutic Agent for Cancer” (priority 2005, published 2008).

On to `Cn1c(=O)c2c(ncn2C)n(C)c1=O` [caffeine], for which the “inhibition of the siRNA-enhanced phosphorylation of p53 Ser15” value in series [1] is recorded as “completely inhibited”.
Regarding `COc1ccc(/C=N/Nc2nc(Nc3ccc([N+](=O)[O-])cc3)nc(N3CCN(C)CC3)n2)cc1OC` [compound X], the half-inhibitory concentration (IC50) – broadly, the concentration that gives 50% inhibition – in series [2] was 20 µM. For the same compound, the “inhibition of the GST-p53 ubiquitination reaction” value in series [3] is “inhibited the GST-p53 ubiquitination reaction in a concentration-dependent manner”. Also, the “cell proliferation / cell survival rate of RKO cells” value in series [4] is listed as “cell proliferation was suppressed”.
With `CN(C)c1nc(N/N=C/c2cc([N+](=O)[O-])ccc2O)nc(Nc2ccc(F)cc2)n1` [compound Y], the IC50 in series [2] is about 6 µM. Besides, the “p53 protein expression level” value in series [5] is “increased”. The “inhibition of the GST-p53 ubiquitination reaction” value in series [3] was “inhibited the GST-p53 ubiquitination reaction in a concentration-dependent manner”. In addition, in series [4], the “cell proliferation / cell survival rate of RKO cells” value is “cell proliferation was suppressed”.
For “h589: double-stranded RNA in which sense strand SEQ ID NO: 18 and antisense strand SEQ ID NO: 19 are annealed; synoviolin siRNA (sense GGUGUUCUUUGGGCAACUGTT; antisense CAGUUGCCCAAAGAACACCTT; chemistry not given here)”, in series [6], the cell cycle entry is given as “delay in the cell cycle at the G0/G1 phase”. For the same compound, in series [7], the “level of p53 mRNA” value is “unchanged” and the “level of synoviolin mRNA” value is on record as “decreased”.
